# Experiments:
# [1] = target: Human KRAS G12D His-tagged protein (Homo sapiens (Human), UniProt P01116, G12D); assay: KRAS G12D binding assay (TR-FRET); settings: GDP 20 nM, GTP-Red
# Description: The binding ability of the compound to KRAS G12D protein was detected by TR-FRET method, and the inhibitory activity of the compound on KRAS G12D protein was evaluated. Human KRAS G12D His-tagged (Cisbio, 63ADK000CB27PEG) protein was 100-fold diluted with PPI Eu detection buffer (Cisbio, 61DB9RBF), then 5 μL of which was added to a 384-well plate and centrifuged at 2000 rpm for 40 seconds. A 10 mM concentrated stock solution of the test compound was prepared with dimethyl sulfoxide, 3-fold serially diluted, then diluted to make a working solution (0.5% DMSO) with PPI Eu detection buffer, added to a 384-well plate at 5 μL/well, with the control group added with 0.5% dimethyl sulfoxide and the highest concentration of the test compound at 10 μM, and centrifuged at 2000 rpm for 40 seconds. An 80 nM GDP standard working solution (Cisbio, 63ADK000CB27PEG) was prepared with PPI Eu detection buffer and added to a 384-well plate at 5 μL/well, with the final concentration of GDP standard working solution at 20 nM. The plate was centrifuged at 2000 rpm for 40 seconds and reacted at room temperature for 30 minutes. 1×6His Eu cryptate antibody and GTP-Red reagent (Cisbio, 63ADK000CB27PEG) were prepared with PPI Eu detection buffer, mixed in a volume ratio of 1:1, 5 μL of which was then added to a 384-well plate, centrifuged at 2000 rpm for 40 seconds, and incubated at room temperature for 30 minutes. The fluorescence intensity at 620 nm and 665 nm was detected by a microplate reader, and the inhibitory activity of the compound on KRAS G12D protein was obtained by fitting a four-parameter equation.
# [2] = tested on: ASPC-1 human pancreatic cancer cells; assay: Cell proliferation assay (Cell Titer-Glo), ASPC-1; format: cell-based
# Description: (§1) On day 1, AGS human gastric cancer cells, ASPC-1 human pancreatic cancer cells, or GP2D human colon cancer cells (Nanjing Cobioer Biosciences Co. Ltd.) in the logarithmic growth phase were taken, digested with an appropriate amount of trypsin, formulated into a single cell suspension using RPMI 1640 (Gibco) medium containing 10% fetal bovine serum and 1% penicillin-streptomycin, counted to adjust the cell density, inoculated in a 96-well plate at 95 μL/well so that there were 3000 cells per well, and then the cell culture plate was incubated in a 37° C., 5% CO2 incubator for overnight. On day 2, a 10 mM concentrated stock solution of KRAS G12D inhibitor was 3-fold serially diluted with dimethyl sulfoxide solution, and then diluted with AGS complete culture medium to make a working solution, which was added to a cell culture plate at 5 μL/well so that the compound had the highest concentration of 10 μM and the lowest concentration of 0.0015 μM, and the control group was 0.5% dimethyl sulfoxide. The cell culture plate was briefly centrifuged and then incubated in a CO2 incubator for 72 hours. On day 5, the cell culture plate was taken out, added with Cell Titer-Glo (Promega) detection reagent in each well, incubated in the dark for 10 minutes, and then luminescence was detected using a microplate reader (Tecan, Infinite M1000 Pro). Data were analyzed using Graphpad software, and curve fitting was performed with four-parameter equation and the IC50 value of the inhibitor was calculated.
# [3] = tested on: phosphorylation level of ERK1/2 in ASPC-1 human pancreatic cancer cells; assay: pERK cell level assay (PHOSPHO-ERK1/2 HTRF kit); format: cell-based; settings: Aspc-1 cells, 4 hours incubation
# Description: In this experiment, the phosphorylation level of ERK1/2 in AGS human gastric cancer cells or ASPC-1 human pancreatic cancer cells was detected using PHOSPHO-ERK1/2 (THR202/TYR 204) (Cisibo, 64ERKPEH) kit, and the inhibitory effect of the compounds on KRAS G12D was investigated based on the phosphorylation level of ERK1/2.
# On day 1, the density of AGS cell (ATCC) suspension was adjusted to 2.1×10^5 cells/mL, then the suspension was spread in a 96-well plate at 95 μL/well so that there were 2×10^4 cells per well, and the cell culture plate was incubated in a 37° C., 5% CO2 incubator for overnight. On day 2, the compound was serially diluted with 100% dimethyl sulfoxide, and then further diluted with a complete culture medium (RPMI-1640+10% FBS+1% PS) to make a working solution of the compound, which was added to a 96-well cell culture plate at 5 μL/well, and incubated in a 37° C., 5% CO2 incubator for 4 hours. After the incubation was completed, the culture medium was discarded, then 1× lysis buffer was added thereto at 50 μL/well, and the plate was shaken at room temperature for 30 minutes. 16 μL of lysis buffer was added to a white 384-well shallow well plate, then 4 μL of pre-formulated antibody mixture was added thereto, and the plate was sealed with microplate sealer and incubated at room temperature for overnight. On day 3, detection was performed on a TECAN M1000 Pro microplate reader using the HTRF setting, and the IC50 value of the compound was calculated.
# [4] = tested on: GP2D human colon cancer cells subcutaneous xenograft tumor; assay: In vivo pharmacodynamic experiment of subcutaneous xenograft tumor model in mice of GP2D human colon cancer cells; settings: BALB/c nude mice; for Tumor volume (11 days, mm^3): 11 days (at grouping)
# Description: Cell culture: GP2D human colon cancer cells were maintained in monolayer culture in DMEM culture medium containing 10% fetal bovine serum in a constant temperature incubator containing 5% CO2 at 37° C. Tumor cells were passaged twice a week. Cells in the exponential growth phase were harvested and counted for inoculation.
# Experimental animals: BALB/c nude mice, 6 to 8 weeks, 18 to 22 g, purchased from Jiangsu GemPharmatech Co. Ltd.
# Experimental method: GP2D cell line ([…]) was inoculated subcutaneously on the right back of experimental mice. The inoculation volume of each mouse was 0.1 mL. The growth of the tumor was observed regularly. When the tumor grew to about 150 mm^3, the mice were randomly grouped according to the tumor size and body weight, and the drug was administrated according to the administration plan shown in Table 1. The body weight and tumor size were measured twice a week throughout the experiment.
# tumor volume (mm^3)=0.5×(tumor long diameter×tumor short diameter^2). Tumor size calculation formula: […]
# [5] = tested on: GP2D human colon cancer cells; assay: Cell proliferation assay (Cell Titer-Glo), GP2D; format: cell-based; settings: 72 hours
# Description: as §1
# [6] = Homo sapiens, ASPC1, Aspc-1, 72 hours
# [7] = Homo sapiens, ASPC1, pERK1/2 (THR202/TYR204)
# Human KRAS G12D His-tagged protein, sequence (P01116-2 other isoform, or with tags, fused parts or gaps G12D): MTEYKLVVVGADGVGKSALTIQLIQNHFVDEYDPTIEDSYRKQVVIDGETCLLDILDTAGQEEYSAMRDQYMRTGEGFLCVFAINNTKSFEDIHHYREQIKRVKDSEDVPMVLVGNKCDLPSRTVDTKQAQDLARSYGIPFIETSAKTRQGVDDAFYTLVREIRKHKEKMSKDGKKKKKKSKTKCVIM
structure (smiles),measurement,setting,value
"[2H]C1([2H])CC[C@@]2(COc3nc4c5c(c(Cl)c(-c6cccc7sc(N)c(C#N)c67)c(F)c5n3)OC[C@@H]3[C@@H]5CC[C@H](CN43)N5)C[C@@H](F)CN12 (single isomer, unassigned) [Compound I-20-2]",IC50,[1],1.89 nM
same,IC50,[2]; [6],6.49 nM
"N#Cc1c(N)sc2cccc(-c3c(Cl)c4c5c(nc(OC[C@@]67CCCN6C[C@H](F)C7)nc5c3F)N3C[C@H]5CC[C@H](N5)[C@H]3CO4)c12 [Compound I-7, 2-amino-4-((5aS,6S,9R)-3-chloro-1-fluoro-13-(((2R,7aS)-2-fluorohexahydro-1H-pyrrolizin-7a-yl)methoxy)-5a,6,7,8,9,10-hexahydro-5H-6,9-epiminoazepino[2′,1′:3,4][1,4]oxazepino[5,6,7-de]quinazolin-2-yl)benzo[b]thiophene-3-carbonitrile ditrifluoroacetate]",IC50,[1],6.59 nM
same,IC50,[3]; pERK1/2 (THR202/TYR204),1.59 nM
same,IC50,"[2]; Aspc-1, 72 hours",5.53 nM
"[2H]C([2H])(Oc1nc2c3c(c(Cl)c(-c4cccc5sc(N)c(C#N)c45)c(F)c3n1)OC[C@@H]1[C@@H]3CC[C@H](CN21)N3)[C@@]12CCCN1C[C@H](F)C2 (single isomer, unassigned) [Compound I-24-2]",IC50,[1],1.75 nM
same,IC50,[2]; [6],6.66 nM
"C#Cc1c(F)ccc2cc(O)cc(-c3ncc4c(N5CC6CCC(C5)N6)nc(OC[C@@]56CCCN5C[C@H](F)C6)nc4c3F)c12 [Ref. A, MRTX1133, reference compound]","Tumor volume (11 days, mm^3)",[4]; 3 mg/kg i.p. twice a day,139.25 ± 17.31 mm^3
same,"Tumor volume (21 days, mm^3)",[4]; 3 mg/kg i.p. twice a day,137.35 ± 18.79 mm^3
same,T/C (%),[4]; 3 mg/kg i.p. twice a day,30.3%
same,Tumor regression rate (%),[4]; 3 mg/kg i.p. twice a day,−1.4%
same,"Tumor volume (11 days, mm^3)",[4]; 10 mg/kg i.p. twice a day,139.90 ± 20.43 mm^3
same,"Tumor volume (21 days, mm^3)",[4]; 10 mg/kg i.p. twice a day,79.77 ± 13.97 mm^3
same,T/C (%),[4]; 10 mg/kg i.p. twice a day,17.6%
same,Tumor regression rate (%),[4]; 10 mg/kg i.p. twice a day,−43.0%
"N#Cc1c(N)sc2ccc(F)c(-c3c(Cl)c4c5c(nc(OC[C@@]67CCCN6C[C@H](F)C7)nc5c3F)N3C[C@H]5CC[C@H](N5)[C@H]3CO4)c12 [Compound I-14, 2-amino-4-((5aS,6S,9R)-3-chloro-1-fluoro-13-(((2R,7aS)-2-fluorohexahydro-1H-pyrrolizin-7a-yl)methoxy)-5a,6,7,8,9,10-hexahydro-5H-6,9-epiminoazepino[2′,1′:3,4][1,4]oxazepino[5,6,7-de]quinazolin-2-yl)-5-fluorobenzo[b]thiophene-3-carbonitrile ditrifluoroacetate]",IC50,[1],8.52 nM
same,IC50,[5],0.124 nM
same,IC50,[3]; pERK1/2 (THR202/TYR204),1.29 nM
same,IC50,"[2]; Aspc-1, 72 hours",6.76 nM
"N#Cc1c(N)sc2c1C(c1c(Cl)c3c4c(nc(OC[C@@]56CCCN5C[C@H](F)C6)nc4c1F)N1C[C@H]4CC[C@H](N4)[C@H]1CO3)=CCC2 [Compound I-25, 2-amino-4-((5aS,6S,9R)-3-chloro-1-fluoro-13-(((2R,7aS)-2-fluorohexahydro-1H-pyrrolizin-7a-yl)methoxy)-5a,6,7,8,9,10-hexahydro-5H-6,9-epiminoazepino[2′,1′:3,4][1,4]oxazepino[5,6,7-de]quinazolin-2-yl)-6,7-dihydrobenzo[b]thiophene-3-carbonitrile ditrifluoroacetate]",IC50,[1],12 nM
same,IC50,[2]; [6],25.8 nM
"N#Cc1c(N)sc2c(F)ccc(-c3c(Cl)c4c5c(nc(OC[C@@]67CCCN6C[C@H](F)C7)nc5c3F)N3C[C@H]5CC[C@H](N5)[C@H]3CO4)c12 [Compound I-11, 2-amino-4-((5aS,6S,9R)-3-chloro-1-fluoro-13-(((2R,7aS)-2-fluorohexahydro-1H-pyrrolizin-7a-yl)methoxy)-5a,6,7,8,9,10-hexahydro-5H-6,9-epiminoazepino[2′,1′:3,4][1,4]oxazepino[5,6,7-de]quinazolin-2-yl)-7-fluorobenzo[b]thiophene-3-carbonitrile]",IC50,[1],11.2 nM
same,IC50,[5]; Homo sapiens,0.336 nM
same,IC50,[3]; [7],1.01 nM
same,IC50,[2]; [6],12.6 nM
"Nc1nc2c(-c3c(Cl)c4c5c(nc(OC[C@@]67CCCN6C[C@H](F)C7)nc5c3F)N3C[C@H]5CC[C@H](N5)[C@H]3CO4)cccc2s1 (single isomer, unassigned) [Compound I-12-2]",IC50,[1],3.01 nM
same,IC50,[3]; [7],8.23 nM
"[2H]C1([2H])CC[C@@]2(C([2H])([2H])Oc3nc4c5c(c(Cl)c(-c6cccc7sc(N)c(C#N)c67)c(F)c5n3)OC[C@@H]3[C@@H]5CC[C@H](CN43)N5)C[C@@H](F)CN12 (single isomer, unassigned) [Compound I-27-2]",IC50,[1],1.4 nM
same,IC50,[5]; Homo sapiens,0.133 nM
"Cc1ccc2sc(N)c(C#N)c2c1-c1c(Cl)c2c3c(nc(OC[C@@]45CCCN4C[C@H](F)C5)nc3c1F)N1C[C@H]3CC[C@H](N3)[C@H]1CO2 [Compound I-21, 2-amino-4-((5aS,6S,9R)-3-chloro-1-fluoro-13-(1-((2R,7aS)-2-fluorohexahydro-1H-pyrrolizin-7a-yl)methoxy)-5a,6,7,8,9,10-hexahydro-5H-6,9-epiminoazepino[2′,1′:3,4][1,4]oxazepino[5,6,7-de]quinazolin-2-yl)-5-methylbenzo[b]thiophene-3-carbonitrile ditrifluoroacetate]",IC50,[1],9.76 nM
same,IC50,[2]; [6],16.9 nM
"Nc1nc2c(-c3c(Cl)c4c5c(nc(OC[C@@]67CCCN6C[C@H](F)C7)nc5c3F)N3C[C@H]5CC[C@H](N5)[C@H]3CO4)ccc(F)c2s1 (single isomer, unassigned) [Compound I-19-2]",IC50,[1],4.63 nM
"CC(Oc1nc2c3c(c(Cl)c(-c4cccc5sc(N)c(C#N)c45)c(F)c3n1)OCC1C3CCC(CN21)N3)C12CCCN1CC(F)C2 [Compound I-17-1, 2-amino-4-((5aS,6S,9R)-3-chloro-1-fluoro-13-(1-((2R,7aS)-2-fluorohexahydro-1H-pyrrolizin-7a-yl)ethoxy)-5a,6,7,8,9,10-hexahydro-5H-6,9-epiminoazepino[2′,1′:3,4][1,4]oxazepino[5,6,7-de]quinazolin-2-yl)benzo[b]thiophene-3-carbonitrile]",IC50,[1],646 nM

# From patent publication US20240327425A1, “KRAS G12D INHIBITOR AND USE THEREOF” (SHANGHAI DE NOVO PHARMATECH CO., LTD., priority 2021, published 2024)
